This is an account of results in patent US7491794B2, “Macrocyclic compounds as inhibitors of viral replication” (Intermune, Inc., priority 2003, dated 2009).

Some results are limits rather than exact numbers.

The target of one experiment is T1, NS3-NS4A protease (Hepatitis C virus genotype 1a, UniProt P27958).
T1 construct: Recombinant E. coli or Baculovirus full-length NS3 was diluted to 3.33 μM with assay buffer; made in house; host or cells: E. coli or baculovirus (BV) system
Put plainly: NS3-NS4A protease assay (NS3 inhibition assay, RETS1 substrate), Section B. Format: biochemical. The note with it: read-out: NS3-NS4A IC50. In a few lines:
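Kinetic fluorescence read (335 nm excitation, 495 nm emission, 30 min) of RETS1 cleavage by NS3/NS4A-2 complex, 2 nM E. coli or 3 nM baculovirus NS3, after 10 min room-temperature compound pre-incubation. Four-parameter-fit IC50s converted to Ki by Cheng–Prusoff, Ki=IC50/(1+[S]/Km).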

Experiment [1] deals with HCV sub-genomic replicon, GS4.3. Put plainly: Quantitation by ELISA of NPTII in the HCV sub-genomic replicon, GS4.3, Section B. Format: cell-based. The settings on record: Hepatitis C virus; GS4.3 cells, 72 h incubation; read-out: Replicon EC50. In a few lines:
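NPTII marker protein in lysates was quantified by ELISA read at 450 nm after 72 h inhibitor exposure (3-fold series, final DMSO 1%, G418-free medium) of HuH-7 cells stably harbouring the subgenomic HCV replicon. Values relative to DMSO-treated controls; 4-parameter curves gave EC50.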

T1 sequence (P27958 1027-1657): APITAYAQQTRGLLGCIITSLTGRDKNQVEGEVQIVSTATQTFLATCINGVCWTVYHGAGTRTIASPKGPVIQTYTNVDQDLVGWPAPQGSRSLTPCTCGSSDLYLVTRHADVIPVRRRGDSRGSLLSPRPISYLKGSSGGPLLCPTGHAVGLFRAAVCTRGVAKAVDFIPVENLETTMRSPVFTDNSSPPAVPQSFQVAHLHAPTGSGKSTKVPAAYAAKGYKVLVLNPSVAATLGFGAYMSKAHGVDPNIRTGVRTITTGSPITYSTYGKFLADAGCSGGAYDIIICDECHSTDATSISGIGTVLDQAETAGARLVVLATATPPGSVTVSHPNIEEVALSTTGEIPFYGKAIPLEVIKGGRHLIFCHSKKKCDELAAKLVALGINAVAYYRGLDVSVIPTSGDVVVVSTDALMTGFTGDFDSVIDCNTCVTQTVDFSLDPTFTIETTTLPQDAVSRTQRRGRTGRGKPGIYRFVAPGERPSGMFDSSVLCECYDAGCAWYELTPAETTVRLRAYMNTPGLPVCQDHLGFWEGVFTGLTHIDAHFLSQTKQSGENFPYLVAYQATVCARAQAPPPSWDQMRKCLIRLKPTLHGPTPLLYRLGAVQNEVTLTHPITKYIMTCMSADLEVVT

Take `CC(C)(C)CC(=O)N[C@H]1CCCCC/C=C\[C@@H]2C[C@@]2(C(=O)NS(=O)(=O)C2CC2)NC(=O)[C@@H]2C[C@@H](OC(=O)N3Cc4cccc(F)c4C3)CN2C1=O` [AR00338070, (1S,4R,6S,14S,18R)-4-Fluoro-1,3-dihydro-isoindole-2-carboxylic acid 4-cyclopropanesulfonylaminocarbonyl-14-(3,3-dimethyl-butyrylamino)-2,15-dioxo-3,16-diaza-tricyclo[14.3.0.0^4,6]nonadec-7-en-18-yl ester]: at NS3-NS4A protease, the IC50 is below 100 nM. Also, the EC50 in experiment [1] was below 100 nM.

Take `O=C(N[C@H]1CCCCCC=C[C@@H]2C[C@@]2(C(=O)O)NC(=O)[C@@H]2C[C@@H](OC(=O)N3CCc4cccc(C(F)(F)F)c4C3)CN2C1=O)OC1CCCC1` [AR00304075, (1S,4R,6S,14S,18R)-14-Cyclopentyloxycarbonylamino-2,15-dioxo-18-(8-trifluoromethyl-3,4-dihydro-1H-isoquinoline-2-carbonyloxy)-3,16-diaza-tricyclo[14.3.0.0^4,6]nonadec-7-ene-4-carboxylic acid]: the IC50 at NS3-NS4A protease is below 1000 nM. In experiment [1], the EC50 was below 10000 nM.

As for `Cn1c(C(=O)O)ccc1S(=O)(=O)NC(=O)[C@@]12C[C@H]1/C=C\CCCCC[C@H](NC(=O)OC(C)(C)C)C(=O)N1C[C@H](OC(=O)N3Cc4ccccc4C3)C[C@H]1C(=O)N2` [AR00364266, (1S,4R,6S,14S,18R)-1,3-Dihydro-isoindole-2-carboxylic acid 14-tert-butoxycarbonylamino-4-(5-carboxy-1-methyl-1H-pyrrole-2-sulfonylaminocarbonyl)-2,15-dioxo-3,16-diaza-tricyclo[14.3.0.0^4,6]nonadec-7-en-18-yl ester], the IC50 on NS3-NS4A protease is below 100 nM. Also, in experiment [1], the EC50 is below 1000 nM.

On to `CC(C)(C)OC(=O)N[C@H]1CCCCC/C=C\[C@@H]2C[C@@]2(C(=O)NS(=O)(=O)C2CC2)NC(=O)[C@@H]2C[C@@H](NC(=S)N3CCc4ccccc4C3)CN2C1=O` [AR00304012, (1S,4R,6S,14S,18R)-{4-Cyclopropanesulfonylaminocarbonyl-18-[(3,4-dihydro-1H-isoquinoline-2-carbothioyl)-amino]-2,15-dioxo-3,16-diaza-tricyclo[14.3.0.0^4,6]nonadec-7-en-14-yl}-carbamic acid tert-butyl ester], for which the IC50 on NS3-NS4A protease is below 100 nM. Moreover, the concentration for a half-maximal effect (EC50) in experiment [1] was below 1000 nM.

With `O=C(N[C@H]1CCCCC/C=C\[C@@H]2C[C@@]2(C(=O)NS(=O)(=O)C2CC2)NC(=O)[C@@H]2C[C@@H](OC(=O)N3Cc4ccc(Cl)cc4C3)CN2C1=O)O[C@H]1CCOC1` [AR00334220, (1S,4R,6S,14S,18R)-5-Chloro-1,3-dihydro-isoindole-2-carboxylic acid 4-cyclopropanesulfonylaminocarbonyl-2,15-dioxo-14-(tetrahydro-furan-3-yloxycarbonylamino)-3,16-diaza-tricyclo[14.3.0.0^4,6]nonadec-7-en-18-yl ester], the IC50 on NS3-NS4A protease is below 100 nM. The EC50 in experiment [1] was below 1000 nM.

On to `O=C(N[C@H]1CCCCC/C=C\[C@@H]2C[C@@]2(C(=O)NS(=O)(=O)C2CC2)NC(=O)[C@@H]2C[C@@H](OC(=O)N3CCc4ccccc4C3)CN2C1=O)OCCF` [AR00304161, (1S,4R,6S,14S,18R)-3,4-Dihydro-1H-isoquinoline-2-carboxylic acid 4-cyclopropanesulfonylaminocarbonyl-14-(2-fluoro-ethoxycarbonylamino)-2,15-dioxo-3,16-diaza-tricyclo[14.3.0.0^4,6]nonadec-7-en-18-yl ester], for which, at NS3-NS4A protease, the IC50 was below 100 nM. Moreover, the EC50 in experiment [1] is below 100 nM.

Consider `CC(=O)Nc1nnc(S(=O)(=O)NC(=O)[C@@]23C[C@H]2/C=C\CCCCC[C@H](NC(=O)OC(C)(C)C)C(=O)N2C[C@H](OC(=O)N4Cc5ccccc5C4)C[C@H]2C(=O)N3)s1` [AR00334247, (1S,4R,6S,14S,18R)-1,3-Dihydro-isoindole-2-carboxylic acid 4-(5-acetylamino-[1,3,4]thiadiazole-2-sulfonylaminocarbonyl)-14-tert-butoxycarbonylamino-2,15-dioxo-3,16-diaza-tricyclo[14.3.0.0^4,6]nonadec-7-en-18-yl ester], for which the concentration for half-maximal inhibition (IC50) on NS3-NS4A protease is below 100 nM. Further, the concentration giving a half-maximal response (EC50) in experiment [1] was below 1000 nM.

Take `CC(C)(C)OC(=O)N[C@H]1CCCCC/C=C\[C@@H]2C[C@@]2(C(=O)NS(=O)(=O)C2CC2)NC(=O)[C@@H]2C[C@@H](OC(=O)N3Cc4ccc(OCCN5CCOCC5)cc4C3)CN2C1=O` [AR00345090, (1S,4R,6S,14S,18R)-5-(2-Morpholin-4-yl-ethoxy)-1,3-dihydro-isoindole-2-carboxylic acid 14-tert-butoxycarbonylamino-4-cyclopropanesulfonylaminocarbonyl-2,15-dioxo-3,16-diaza-tricyclo[14.3.0.0^4,6]nonadec-7-en-18-yl ester]: the IC50 on NS3-NS4A protease is below 100 nM. The 50% effective concentration (EC50) in experiment [1] is below 100 nM.

In the case of `CC(C)(C)OC(=O)N[C@H]1CCCCC/C=C\[C@@H]2C[C@@]2(C(=O)NS(=O)(=O)c2cccs2)NC(=O)[C@@H]2C[C@@H](OC(=O)N3Cc4ccccc4C3)CN2C1=O` [AR00365427, (1S,4R,6S,14S,18R)-1,3-Dihydro-isoindole-2-carboxylic acid 14-tert-butoxycarbonylamino-2,15-dioxo-4-(thiophene-2-sulfonylaminocarbonyl)-3,16-diaza-tricyclo[14.3.0.0^4,6]nonadec-7-en-18-yl ester], the IC50 on NS3-NS4A protease was below 100 nM. Moreover, the EC50 in experiment [1] was below 100 nM.

With `CC(C)(C)NC(=O)N[C@H]1CCCCC/C=C\[C@@H]2C[C@@]2(C(=O)O)NC(=O)[C@@H]2C[C@@H](OC(=O)N3Cc4ccccc4C3)CN2C1=O` [AR00320078, (1S,4R,6S,14S,18R)-14-(3-tert-Butyl-ureido)-18-(1,3-dihydro-isoindole-2-carbonyloxy)-2,15-dioxo-3,16-diaza-tricyclo[14.3.0.0^4,6]nonadec-7-ene-4-carboxylic acid], the IC50 on NS3-NS4A protease was below 100 nM. For the same compound, the half-maximal effective concentration (EC50) in experiment [1] was below 10000 nM.

Turning to `O=C(NC1CCCC1)N[C@H]1CCCCC/C=C\[C@@H]2C[C@@]2(C(=O)O)NC(=O)[C@@H]2C[C@@H](OC(=O)N3CCc4ccccc4C3)CN2C1=O` [AR00294378, (1S,4R,6S,14S,18R)-14-(3-Cyclopentyl-ureido)-18-(3,4-dihydro-1H-isoquinoline-2-carbonyloxy)-2,15-dioxo-3,16-diaza-tricyclo[14.3.0.0^4,6]nonadec-7-ene-4-carboxylic acid], the IC50 at NS3-NS4A protease was below 1000 nM. Also, the EC50 in experiment [1] was below 10000 nM.

As for `CC(C)(C)NC(=O)N[C@H]1CCCCC/C=C\[C@@H]2C[C@@]2(C(=O)O)NC(=O)[C@@H]2C[C@@H](OC(=O)N3CCc4ccccc4C3)CN2C1=O` [AR00294377, (1S,4R,6S,14S,18R)-14-(3-tert-Butyl-ureido)-18-(3,4-dihydro-1H-isoquinoline-2-carbonyloxy)-2,15-dioxo-3,16-diaza-tricyclo[14.3.0.0^4,6]nonadec-7-ene-4-carboxylic acid], at NS3-NS4A protease, the IC50 is below 1000 nM. In experiment [1], the EC50 is below 10000 nM.

As for `CC(C)(C)OC(=O)N[C@H]1CCCCC/C=C\[C@@H]2C[C@@]2(C(=O)NS(=O)(=O)C2CC2)NC(=O)[C@@H]2C[C@@H](NC(=O)N3Cc4ccccc4C3)CN2C1=O` [AR00304008, (1S,4R,6S,14S,18R)-{4-Cyclopropanesulfonylaminocarbonyl-18-[(1,3-dihydro-isoindole-2-carbonyl)-amino]-2,15-dioxo-3,16-diaza-tricyclo[14.3.0.0^4,6]nonadec-7-en-14-yl}-carbamic acid tert-butyl ester], at NS3-NS4A protease, the IC50 was below 100 nM. Also, the EC50 in experiment [1] was below 100 nM.

On to `CN(C)c1cccc2c1CCN(C(=O)O[C@@H]1C[C@H]3C(=O)N[C@]4(C(=O)O)C[C@H]4/C=C\CCCCC[C@H](NC(=O)OC(C)(C)C)C(=O)N3C1)C2` [AR00315997, (1S,4R,6S,14S,18R)-14-tert-Butoxycarbonylamino-18-(5-dimethylamino-3,4-dihydro-1H-isoquinoline-2-carbonyloxy)-2,15-dioxo-3,16-diaza-tricyclo[14.3.0.0^4,6]nonadec-7-ene-4-carboxylic acid], for which the IC50 on NS3-NS4A protease is below 1000 nM. For the same compound, the EC50 in experiment [1] is below 10000 nM.

Turning to `CC(C)(C)OC(=O)N[C@H]1CCCCC/C=C\[C@@H]2C[C@@]2(C(=O)NS(=O)(=O)c2ccccc2)NC(=O)[C@@H]2C[C@@H](OC(=O)N3Cc4ccccc4C3)CN2C1=O` [AR00333802, (1S,4R,6S,14S,18R)-1,3-Dihydro-isoindole-2-carboxylic acid 4-benzenesulfonylaminocarbonyl-14-tert-butoxycarbonylamino-2,15-dioxo-3,16-diaza-tricyclo[14.3.0.0^4,6]nonadec-7-en-18-yl ester], the IC50 at NS3-NS4A protease is below 100 nM. Further, the EC50 in experiment [1] is below 100 nM.

`O=C(NC1CCCC1)N[C@H]1CCCCC/C=C\[C@@H]2C[C@@]2(C(=O)O)NC(=O)[C@@H]2C[C@@H](OC(=O)N3CCc4c(F)cccc4C3)CN2C1=O` [AR00304077, (1S,4R,6S,14S,18R)-14-(3-Cyclopentyl-ureido)-18-(5-fluoro-3,4-dihydro-1H-isoquinoline-2-carbonyloxy)-2,15-dioxo-3,16-diaza-tricyclo[14.3.0.0^4,6]nonadec-7-ene-4-carboxylic acid]: the IC50 on NS3-NS4A protease is below 100 nM. Further, the EC50 in experiment [1] was below 10000 nM.

For the compound `O=C(NC1CCCC1)N[C@H]1CCCCC/C=C\[C@@H]2C[C@@]2(C(=O)NS(=O)(=O)C2CC2)NC(=O)[C@@H]2C[C@@H](NC(=O)N3Cc4ccccc4C3)CN2C1=O` [AR00304014, (1S,4R,6S,14S,18R)-1,3-Dihydro-isoindole-2-carboxylic acid [14-(3-cyclopentyl-ureido)-4-cyclopropanesulfonylaminocarbonyl-2,15-dioxo-3,16-diaza-tricyclo[14.3.0.0^4,6]nonadec-7-en-18-yl]-amide], at NS3-NS4A protease, the IC50 was below 100 nM. Further, the half-maximal effective concentration (EC50) in experiment [1] was below 100 nM.
